From ChEMBL document CHEMBL4888484, “Replenishing the malaria drug discovery pipeline: Screening and hit evaluation of the MMV Hit Generation Library 1 (HGL1) against asexual blood stage Plasmodium falciparum ,using a nano luciferase reporter read-out” (2022)

Experiments:
Plasmodium falciparum [1] = test: Hit confirmation in dose-response curve in NF54 pLDH assay, at 72h; format: functional, organism-based; parameters: timepoint 72 hour; conditions: NF54, Erythrocyte
Plasmodium falciparum [2] = test: Hit confirmation in dose-response curve in NF54 nanoGlo assay, at 12h; format: functional, organism-based, Erythrocyte; parameters: timepoint 12 hour; conditions: Plasmodium falciparum, NF54, Erythrocyte, 12 h
Plasmodium falciparum [3] = test: Hit confirmation in dose-response curve in NF54 nanoGlo assay, at 72h; format: functional, organism-based, Erythrocyte; parameters: timepoint 72 hour; conditions: Plasmodium falciparum, NF54, Erythrocyte, 72 h
[4] = Hit confirmation in dose-response curve in HepG2 cytotoxicity assay, at 72h; format: toxicity, cell-based; parameters: timepoint 72 hour; conditions: human, HepG2 cells
Plasmodium falciparum [5] = test: Hit confirmation in dose-response curve in Dd2 pLDH assay, at 72h; format: functional, organism-based; parameters: timepoint 72 hour; conditions: Dd2, Erythrocyte

Structure (SMILES)	IC50 (Plasmodium falciparum [1]) [µM]	IC50 (Plasmodium falciparum [2]) [µM]	IC50 (Plasmodium falciparum [3]) [µM]	IC50 at 72 h [4] [µM]	IC50 (Plasmodium falciparum [5]) [µM]
COc1nc(-c2cccc(C(=O)N3C[C@@H]4CC[C@H](C3)C(=O)N4)c2)ncc1F	0.813	> 10	0.479	> 10	> 10
Cc1nsc2ncc(C(=O)N3CCC(C)CC3)c(N3CCC(C(=O)Nc4cc(F)ccc4F)CC3)c12	11.5	6.92	2.82	> 10	9.77
COc1cc(C(=O)Nc2[nH]c(=O)ncc2F)ccc1Cl	0.01	7.76	0.00589	> 10	> 10
Cc1cc(-c2cc(O)cc(CC[C@H]3CCCCN3)c2)ccn1	0.269	2.95	0.501	> 10	0.269
COc1ccc2c(c1)OC13CCN(C)CC1C2C(C(=O)c1ccccc1OC)C(=O)N3 (stereo not given)	> 10	1.05	2	> 10	> 10
CC1(C)CCC(Nc2ccc(C(N)=O)nn2)CC1	0.0871	> 10	0.49	> 10	> 10
Cc1nc(C(=O)Nc2[nH]c(=O)ncc2F)c(-c2ccccc2)o1	0.0126	9.55	0.00832	> 10	> 10
CCc1ccc(C(=O)Nc2cnc(-n3ccnc3)nc2)cc1	3.55	> 10	5.01	> 10	6.31
COc1ccc2[nH]c3c(c2c1)CCN(C(=O)c1ccc(C)c(C)c1)[C@@H]3c1ccccc1OC	3.55	8.71	1.74	> 10	2.57
Cc1oc(-c2ccc(C(=O)N3CCN(c4ccccc4)CC3)cc2)nc1CN1CCC(C)CC1	3.39	2.34	2.14	> 10	> 10
COc1ccc(-c2cc3n(n2)C[C@@](C)(C(=O)NCc2ccccc2)N(Cc2ccc4c(c2)OCO4)C3=O)cc1	> 10	4.9	2.45	> 10	9.55
Cc1cccc2ncnc(N(C)[C@@H](C)Cc3ccc(O)cc3)c12	3.09	2.45	1.86	> 10	2.82
CNCCc1c(-c2ccccc2)[nH]n(-c2ccccc2)c1=O	2.82	2.75	1.7	> 10	3.16
COc1ccc(CC(=O)NCCn2c(C(F)(F)F)nc3ccccc32)cc1	> 10	1.62	2.57	> 10	> 10
COc1ccc(CC(=N)Nc2cc3cc(OC)c(OC)cc3c(Cc3ccc(OC)c(OC)c3)n2)cc1OC	3.72	5.01	2.24	> 10	2
Cn1c(N)c(S(=O)(=O)N2CCN(c3ccccc3Cl)CC2)c(=O)n(C)c1=O	> 10	0.501	1.51	> 10	> 10
CC(C)(C)n1nc2nc(NCCN3CCCCC3)nc(-c3ccc(F)c(Cl)c3)c2c1N	2.88	6.03	1.62	> 10	2.82
CC(=O)Nc1ccc(C)cc1S(=O)(=O)N1CC=C(c2c(C)n(Cc3ccccc3C)c3ccccc23)CC1	4.47	1.86	1.7	> 10	3.47
COc1ccc2c(/C=C/c3cc[n+](C)cc3)cn(Cc3ccccc3)c2c1	1.58	> 10	1.17	> 10	1.26
N#Cc1nc2c(C#N)c(N)n(CCc3ccccc3)c2nc1C#N	0.347	2.04	1.38	> 10	1.45
N#Cc1c(-c2ccccc2)cc(-c2ccccc2)nc1S(=O)(=O)Cc1ccccc1	4.07	6.61	3.09	> 10	3.55
CC1=CC(=[N+](CCO)CCO)C=C/C1=C(\c1ccc(N(CCO)CCO)cc1C)c1ccccc1Cl	0.166	7.41	0.0871	> 10	0.0871
Cc1cc2nc(C)c(=O)n(Cc3ccc(C(=O)NCCN4CCCC[C@@H]4C)cc3)c2cc1C	5.5	> 10	4.17	> 10	6.92
COc1ccccc1CN1COc2cc3c(cc2C1)OCO3	2.09	1.91	1.58	> 10	2.29
Cc1ccc(C2c3ccsc3CCN2CCC(=O)N2CCN(C(=O)Cc3cccs3)C(C)C2)cc1 (stereo not given)	2.75	> 10	8.91	> 10	10.5

Structure (SMILES)	IC50 (Plasmodium falciparum [1]) [µM]	IC50 (Plasmodium falciparum [2]) [µM]	IC50 (Plasmodium falciparum [3]) [µM]	IC50 at 72 h [4] [µM]	IC50 (Plasmodium falciparum [5]) [µM]
CCC(CC)c1cc([C@H]2CN3CC[C@H]2C[C@@H]3CNS(=O)(=O)Cc2ccccc2)nc(-c2ccncc2)n1	4.37	3.89	2.04	> 10	3.89
COc1cc(C(=O)Nc2ccc3sc(NC(=O)c4cc(OC)c(OC)c(OC)c4)nc3n2)cc(OC)c1OC	2.95	1.15	0.263	> 10	2.95
CCc1cc(=O)[nH]c(-n2nc(C3CC3)cc2NC(=O)C2CCCCC2)n1	4.07	> 10	1.26	> 10	3.24
Cn1ccnc1[C@@H]1CCCN1Cc1nccn1Cc1ccccc1	2.82	6.76	2.09	> 10	3.24
COc1ccc(-c2c[n+](-c3ccc(Cl)cc3)c3n2CCCCC3)cc1	2.24	> 10	1.38	> 10	1
CCCn1ccnc1-c1cn(Cc2cc3ccccc3[nH]2)nn1	5.37	> 10	2.82	> 10	4.79
CN1CCN(Cc2cc3cc4c(cc3nc2-c2ccc(Cl)cc2)OCO4)CC1=O	> 10	4.47	4.07	> 10	> 10
Cc1cc(C)c2nc(C)cc(Nc3ccc(O)cc3)c2c1	1.66	7.41	1.23	> 10	1.26
Oc1cc(CC[C@H]2CCCCN2)cc(-c2cnc3ccccc3n2)c1	2.75	2.09	1.58	> 10	1.95
Cc1noc(NCc2ccc(Cl)cc2)n1	8.13	> 10	3.8	> 10	2.88
COc1ccc(CNCc2ccc(C)cc2)cc1Cn1ccnc1	2.69	2.88	1.86	> 10	1.41
CCC(C)NCC(O)Cn1c(-c2ccccc2)c(-c2ccccc2)c2cc(C)ccc21 (stereo not given)	2.57	1.51	1.02	> 10	2.75
COc1ccc(-c2cc(C(F)(F)F)nc(-n3nc(-c4cccc(OC)c4)c(Cl)c3-c3cccc(OC)c3)n2)cc1	> 10	1.74	1.51	> 10	4.07
CCNc1nc(C)cc(Nc2ccc(NS(=O)(=O)c3c(C)noc3C)cc2)n1	3.47	5.01	2.69	> 10	2.51
Cc1ccc2nc(-c3cc4ccccc4o3)cn2c1	3.02	> 10	2.04	> 10	2.69
CN1CCCN(c2ccnc3ccsc23)CC1	3.8	3.8	2.95	> 10	2.45
Oc1ccccc1CNc1cccc2cccnc12	> 10	8.51	4.37	> 10	8.13
Cc1cc(N)nc(Nc2ccc(Nc3ccccc3)cc2)n1	3.31	6.46	2.24	> 10	5.37
O=C(CCCc1ccccc1)Nc1cc(C2CC2)nn1-c1nc(-c2ccccc2)cc(=O)[nH]1	6.03	> 10	3.72	> 10	3.63
Cc1ccc(NC(=O)Nc2cc(C)ccc2N2CCCN(Cc3ccc(F)cc3)C2=O)cc1	14.1	> 10	5.5	> 10	> 10
Oc1ccc2ncccc2c1[C@@H](Nc1ccccn1)c1cccc(Br)c1	5.13	3.09	1.58	> 10	2.75
CC(NCC(O)Cn1c(-c2ccccc2)c(-c2ccccc2)c2ccc3ccccc3c21)c1ccccc1 (stereo not given)	9.12	1.95	1.62	> 10	7.94
O[C@@]1(CN2CCC(COc3ccc4c(c3)CCC4)CC2)CCCNC1	3.47	6.31	2.14	> 10	2.51
CC(C)C(=O)Nc1ccc(-c2cc(-c3ccc(NC(=O)C(C)C)cc3)nc(-c3ccncc3)n2)cc1	8.71	> 10	4.68	> 10	> 10
Cc1ccc(OCC(=O)Nc2cc(C)nn2-c2nc3c(cnn3-c3ccc(C)c(C)c3)c(=O)[nH]2)cc1	4.07	> 10	2.09	> 10	6.92
